Test results taken from patent publication US4988687A, “Cephalosporin derivatives, and antibacterial agents” (priority 1986, dated 1991).
Where two headings read alike, the source gives them in different places.

How the values were obtained:
C. freundii GN346/16 = assay: agar plate dilution method, MIC against C. freundii GN346/16; type: cell-based; settings: Citrobacter freundii, read-out: Minimum Inhibitory Concentration (MIC)
Procedure: (§1) The in vitro antibacterial activities of the compounds of the present invention against various microorganisms, were measured by the following agar plate dilution method. One platinum loopfull of each test microorganism incubated overnight in Mueller Hinton broth, was inoculated to Mueller Hinton agar (inoculum size: 10^6 CFU/ml) Such culture media containing various antibiotics in various concentrations were prepared After incubation at 37° C. for 16 hours, the minimum inhibitory concentrations (MIC: μg/ml) were measured. As comparative compounds, cefotaxime, oeftazidime and the compounds disclosed in Example 2 of Japanese Unexamined Patent Publication No. 215690/1985 e.g. sodium 7-[2-(2-aminothiazol-4-yl)-2-ethoxyiminoacetamido]-3-(1-carboxylatemethylpyridinio-4-yl)thiomethyl-3-cephem-4-carboxylate (hereinafter referred to simply as "Reference Example A") were employed.

S. aureus JS1 = assay: agar plate dilution method, MIC against S. aureus JS1; type: cell-based; settings: Staphylococcus aureus, read-out: Minimum Inhibitory Concentration (MIC)
Procedure: as §1

A. calcoaceticus No. 4 = assay: agar plate dilution method, MIC against A. calcoaceticus No. 4; type: cell-based; settings: Acinetobacter calcoaceticus, read-out: Minimum Inhibitory Concentration (MIC)
Procedure: as §1

Ps. maltophilia GN 12873 = assay: agar plate dilution method, MIC against Ps. maltophilia GN 12873; type: cell-based, Pseudomonas maltophilia; settings: Stenotrophomonas maltophilia, GN12873; Ps. maltophilia GN 12873 (lactamase-producing strain); 10^6 CFU/ml, 37° C., 16 hours; read-out: Minimum Inhibitory Concentration (MIC)
Procedure: as §1

S. aureus BB5703 = assay: agar plate dilution method, MIC against S. aureus BB5703; type: cell-based; settings: Staphylococcus aureus, BB5703, 16 h, read-out: Minimum Inhibitory Concentration (MIC)
Procedure: as §1

S. epidermidis IAM12012 = assay: agar plate dilution method, MIC against S. epidermidis IAM12012; type: cell-based; settings: Staphylococcus epidermidis, read-out: Minimum Inhibitory Concentration (MIC)
Procedure: as §1

K. pneumoniae PCI-602 = assay: agar plate dilution method, MIC against K. pneumoniae PCI-602; type: cell-based; settings: Klebsiella pneumoniae, PCI602, 16 h, read-out: Minimum Inhibitory Concentration (MIC)
Procedure: as §1

E. coli NIHJ JC2 = assay: agar plate dilution method, MIC against E. coli NIHJ JC2; type: cell-based; settings: Escherichia coli, NIHJJC2; E. coli NIHJ JC2; 10^6 CFU/ml, 37° C., 16 hours; read-out: Minimum Inhibitory Concentration (MIC)
Procedure: as §1

M. morganii GN5407 = assay: agar plate dilution method, MIC against M. morganii GN5407; type: cell-based; settings: Morganella morganii; M. morganii GN5407 (lactamase-producing strain); 10^6 CFU/ml, 37° C., 16 hours; read-out: Minimum Inhibitory Concentration (MIC)
Procedure: as §1

K. oxytoca GN10650 = assay: agar plate dilution method, MIC against K. oxytoca GN10650; type: cell-based; settings: Klebsiella oxytoca; K. oxytoca GN10650 (lactamase-producing strain); 10^6 CFU/ml, 37° C., 16 hours; read-out: Minimum Inhibitory Concentration (MIC)
Procedure: as §1

P. vulgaris No. 33 = assay: agar plate dilution method, MIC against P. vulgaris No. 33; type: cell-based; settings: Proteus vulgaris; P. vulgaris No. 33 (lactamase-producing strain); 10^6 CFU/ml, 37° C., 16 hours; read-out: Minimum Inhibitory Concentration (MIC)
Procedure: as §1

E. coli GN5482 = assay: agar plate dilution method, MIC against E. coli GN5482; type: cell-based; settings: Escherichia coli; E. coli GN5482 (lactamase-producing strain); 10^6 CFU/ml, 37° C., 16 hours; read-out: Minimum Inhibitory Concentration (MIC)
Procedure: as §1

Ps. aeruginosa AKR17 = assay: agar plate dilution method, MIC against Ps. aeruginosa AKR17; type: cell-based; settings: Pseudomonas aeruginosa; Ps. aeruginosa AKR17; 10^6 CFU/ml, 37° C., 16 hours; read-out: Minimum Inhibitory Concentration (MIC)
Procedure: as §1

P. vulgaris HX-19 = assay: agar plate dilution method, MIC against P. vulgaris HX-19; type: cell-based; settings: Proteus vulgaris, HX19, 16 h, read-out: Minimum Inhibitory Concentration (MIC)
Procedure: as §1

Ps. aeruginosa AK 109 = assay: agar plate dilution method, MIC against Ps. aeruginosa AK 109; type: cell-based; settings: Pseudomonas aeruginosa, read-out: Minimum Inhibitory Concentration (MIC)
Procedure: as §1

E. coli CSH2 (RK1) = assay: agar plate dilution method, MIC against E. coli CSH2 (RK1); type: cell-based; settings: Escherichia coli, 16 h, read-out: Minimum Inhibitory Concentration (MIC)
Procedure: as §1

Ps. aeruginosa IFO3445 = assay: agar plate dilution method, MIC against Ps. aeruginosa IFO3445; type: cell-based; settings: Pseudomonas aeruginosa, IFO3445, 16 h, read-out: Minimum Inhibitory Concentration (MIC)
Procedure: as §1

S. marcescens No. 16-2 = assay: agar plate dilution method, MIC against S. marcescens No. 16-2; type: cell-based; settings: Serratia marcescens, NO.162, 16 h, read-out: Minimum Inhibitory Concentration (MIC)
Procedure: as §1

S. marcescens IAM 1184 = assay: agar plate dilution method, MIC against S. marcescens IAM 1184; type: cell-based; settings: Serratia marcescens, IAM1184; S. marcescens IAM 1184; 10^6 CFU/ml, 37° C., 16 hours; read-out: Minimum Inhibitory Concentration (MIC)
Procedure: as §1

Ps. cepacia 23 = assay: agar plate dilution method, MIC against Ps. cepacia 23; type: cell-based, Pseudomonas cepacia; settings: Burkholderia cepacia, 23, 16 h, read-out: Minimum Inhibitory Concentration (MIC)
Procedure: as §1

E. cloacae Nek 39 = assay: agar plate dilution method, MIC against E. cloacae Nek 39; type: cell-based; settings: Enterobacter cloacae, NEK39; E. cloacae Nek 39 (lactamase-producing strain); 10^6 CFU/ml, 37° C., 16 hours; read-out: Minimum Inhibitory Concentration (MIC)
Procedure: as §1

E. coli CSH(RE45) = assay: agar plate dilution method, MIC against E. coli CSH(RE45); type: cell-based; settings: Escherichia coli, 16 h, read-out: Minimum Inhibitory Concentration (MIC)
Procedure: as §1

S. aureus 209P NIHJ-JC1 = assay: agar plate dilution method, MIC against S. aureus 209P NIHJ-JC1; type: cell-based; settings: Staphylococcus aureus; S. aureus 209P NIHJ-JC1; 10^6 CFU/ml, Mueller Hinton agar, 37° C., 16 hours; read-out: Minimum Inhibitory Concentration (MIC)
Procedure: as §1

E. cloacae 963 = assay: agar plate dilution method, MIC against E. cloacae 963; type: cell-based; settings: read-out: Minimum Inhibitory Concentration (MIC)
Procedure: as §1

C. freundii GN346 = assay: agar plate dilution method, MIC against C. freundii GN346; type: cell-based; settings: Citrobacter freundii; C. freundii GN346 (lactamase-producing strain); 10^6 CFU/ml, 37° C., 16 hours; read-out: Minimum Inhibitory Concentration (MIC)
Procedure: as §1

M. luteus ATCC9341 = assay: agar plate dilution method, MIC against M. luteus ATCC9341; type: cell-based; settings: Micrococcus luteus; M. luteus ATCC9341; 10^6 CFU/ml, 37° C., 16 hours; read-out: Minimum Inhibitory Concentration (MIC)
Procedure: as §1

K. pneumoniae No. 42 = assay: agar plate dilution method, MIC against K. pneumoniae No. 42; type: cell-based; settings: Klebsiella pneumoniae; K. pneumoniae No. 42 (lactamase-producing strain); 10^6 CFU/ml, 37° C., 16 hours; read-out: Minimum Inhibitory Concentration (MIC)
Procedure: as §1

| SMILES | MIC (Ps. maltophilia GN 12873) [µg/mL] | MIC (S. aureus BB5703) [µg/mL] | MIC (K. pneumoniae PCI-602) [µg/mL] | MIC (E. coli NIHJ JC2) [µg/mL] | MIC (M. morganii GN5407) [µg/mL] | MIC (K. oxytoca GN10650) [µg/mL] | MIC (P. vulgaris No. 33) [µg/mL] | MIC (E. coli GN5482) [µg/mL] | MIC (Ps. aeruginosa AKR17) [µg/mL] | MIC (P. vulgaris HX-19) [µg/mL] | MIC (E. coli CSH2 (RK1)) [µg/mL] | MIC (Ps. aeruginosa IFO3445) [µg/mL] | MIC (S. marcescens No. 16-2) [µg/mL] | MIC (S. marcescens IAM 1184) [µg/mL] | MIC (Ps. cepacia 23) [µg/mL] | MIC (E. cloacae Nek 39) [µg/mL] | MIC (E. coli CSH(RE45)) [µg/mL] | MIC (S. aureus 209P NIHJ-JC1) [µg/mL] | MIC (C. freundii GN346) [µg/mL] | MIC (M. luteus ATCC9341) [µg/mL] | also measured |
| --- | --- | --- | --- | --- | --- | --- | --- | --- | --- | --- | --- | --- | --- | --- | --- | --- | --- | --- | --- | --- | --- |
| Nc1nc(/C(=N/Oc2ccccc2)C(=O)NC2C(=O)N3C(C(=O)[O-])=C(CSc4cc[n+](CC(=O)O)cc4)CSC23)cs1 (stereo not drawn) [Example 7, sodium 7-[2-(2-aminothiazol-4-yl)-2-phenoxyiminoacetamido]-3-(1-carboxylatemethylpyridinio-4-yl)thiomethYl-3-cephem-4-carboxylate (syn-isomer)] | > 100 | 3.12 | 0.025 | 0.78 | 0.78 | 25 | 0.78 | 1.56 | > 100 | < 0.006 | 0.78 | 12.5 | 12.5 | 0.78 | 3.12 | 12.5 | 0.78 | 0.39 | 50 | 0.1 | MIC (C. freundii GN346/16; GN346, 16 h): 1.56 µg/mL; MIC (S. aureus JS1; JS1, 16 h): 12.5 µg/mL; MIC (A. calcoaceticus No. 4; NO.4, 16 h): 3.12 µg/mL; MIC (S. epidermidis IAM12012; IAM12012, 16 h): 0.2 µg/mL; MIC (Ps. aeruginosa AK 109; AK109, Ps. aeruginosa AK 109, 10^6 CFU/ml, 37° C., 16 hours): 25 µg/mL; MIC (E. cloacae 963; Enterobacter cloacae, 963, 16 h): 3.12 µg/mL; MIC (K. pneumoniae No. 42): 3.12 µg/mL |
| CCON=C(C(=O)NC1C(=O)N2C(C(=O)[O-])=C(CSc3cc[n+](CC(=O)O)cc3)CSC12)c1csc(N)n1 (stereo not drawn) [Reference Example A, sodium 7-[2-(2-aminothiazol-4-yl)-2-ethoxyiminoacetamido]-3-(1-carboxylatemethylpyridinio-4-yl)thiomethyl-3-cephem-4-carboxylate, reference compound] | > 100 | 3.12 | < 0.006 | 0.05 | 0.05 | 3.12 | 0.05 | 0.2 | > 100 | < 0.006 | 0.025 | 6.25 | 6.25 | 0.05 | 6.25 | 1.56 | 0.05 | 0.39 | 25 | 0.1 | MIC (C. freundii GN346/16; C. freundii GN346/16, 10^6 CFU/ml, 37° C., 16 hours): 0.1 µg/mL; MIC (S. aureus JS1; S. aureus JS1 (methicilline resistant; lactamase-producing strain), 10^6 CFU/ml, 37° C., 16 hours): 100 µg/mL; MIC (A. calcoaceticus No. 4; A. calcoaceticus No. 4, 10^6 CFU/ml, 37° C., 16 hours): 100 µg/mL; MIC (S. epidermidis IAM12012; S. epidermidis IAM12012, 10^6 CFU/ml, 37° C., 16 hours): 0.05 µg/mL; MIC (Ps. aeruginosa AK 109; AK109, 16 h): 12.5 µg/mL; MIC (E. cloacae 963; Enterobacter cloacae, E. cloacae 963, 10^6 CFU/ml, 37° C., 16 hours): 0.1 µg/mL; MIC (K. pneumoniae No. 42): 0.05 µg/mL |
